Test: xn = mol fraction of the nth substance listed
Conditions: Liquid, dividing mass by volume

CCCCCCCC [octane] + O=C=O
Conditions | mass density [kg/m3]
313.2 K, x2 = 0.11 | 730
313.2 K, x2 = 0.2134 | 729
313.2 K, x2 = 0.3377 | 729.3
313.2 K, x2 = 0.4342 | 711.9
313.2 K, x2 = 0.5534 | 692.7
313.2 K, x2 = 0.6752 | 663.5
313.2 K, x2 = 0.752 | 644.6
313.2 K, x2 = 0.8581 | 585
313.2 K, x2 = 0.9447 | 462.3
333.2 K, x2 = 0.1573 | 683.6
333.2 K, x2 = 0.206 | 678.5
333.2 K, x2 = 0.2891 | 670.1
333.2 K, x2 = 0.3593 | 660.5
333.2 K, x2 = 0.4296 | 657.3
333.2 K, x2 = 0.4956 | 641.9
333.2 K, x2 = 0.5915 | 627.8
333.2 K, x2 = 0.7413 | 556.8
333.2 K, x2 = 0.8558 | 516.5
333.2 K, x2 = 0.9383 | 436.1
353.2 K, x2 = 0.1452 | 658.6
353.2 K, x2 = 0.2452 | 651.5
353.2 K, x2 = 0.3596 | 642.5
353.2 K, x2 = 0.4373 | 635.4
353.2 K, x2 = 0.4948 | 621.3
353.2 K, x2 = 0.5783 | 614.8
353.2 K, x2 = 0.6237 | 600.1
353.2 K, x2 = 0.7761 | 585.8
353.2 K, x2 = 0.8255 | 560
353.2 K, x2 = 0.9154 | 458.2
373.2 K, x2 = 0.2172 | 550.7
373.2 K, x2 = 0.369 | 565.2
373.2 K, x2 = 0.5134 | 584.2
373.2 K, x2 = 0.5706 | 592.6
373.2 K, x2 = 0.6538 | 591.7
373.2 K, x2 = 0.7837 | 565.8
373.2 K, x2 = 0.8522 | 516.3
373.2 K, x2 = 0.902 | 425.1
393.2 K, x2 = 0.156 | 510.3
393.2 K, x2 = 0.2689 | 525.1
393.2 K, x2 = 0.3933 | 531.4
393.2 K, x2 = 0.4582 | 537.8
393.2 K, x2 = 0.522 | 544.7
393.2 K, x2 = 0.5922 | 546.8
393.2 K, x2 = 0.6738 | 551.1
393.2 K, x2 = 0.7464 | 553.2
393.2 K, x2 = 0.8146 | 519.8
393.2 K, x2 = 0.8728 | 400.2
